# Experimental data published in PMC7262662 (BioMed Research International, 2020).
# Where two headings read alike, the source gives them in different places.
# Columns and labels:
# [1] = Pharmacokinetics study in healthy cats (plasma curcumin by HPLC); type: in vivo; conditions: for Curcumin content in plasma: any interval, not detected, below detection limit of HPLC; for Tmax / Cmax / AUC(0-t): po, 250 mg/kg; for Cmax: plasma curcumin
# Description: Single-dosing (s.i.d.) and two-dosing (b.i.d.) oral administration of curcumin and Cur-CS nanoparticle pharmacokinetics study spanning 24 h was performed in the cats, which weighed 1.5–3.5 kg. The cats were randomly divided into four groups, and each group contained four cats. […] Prior to and 0.5, 1, 2, 3, 4, 8, 12, and 24 h after the treatments, 1 mL blood was harvested via jugular, cephalic, or saphenous venipuncture into lithium heparinized tubes (BD, Franklin Lakes, NJ, USA). The plasma was immediately centrifuged at 500 g for 5 min at 4°C and stored at -80°C until use. The cats then underwent a 2-week washout and rest period prior to testing on the following treatment and series of blood collection. All the cats were neutered at the end of the study and adopted by the public. Curcumin was extracted from plasma using the polar solvent extraction method. Ethyl acetate (500 μL) was added to 200 μL plasma and vortexed for 10 min. The samples were centrifuged at 4000 g at 10°C for 15 min, and the upper ethyl acetate layer was transferred to a new 1.5 mL tube. The extraction was repeated twice and performed under dim light conditions to prevent the degradation of curcumin. […] An aliquot of a 20 μL sample was analysed for quantifying the curcumin in the plasma by HPLC. The curcumin was quantified using a Series 1200 Quaternary HPLC system (Agilent Technologies, Santa Clara, CA, USA) with an UV-Vis detector equipped with an Eclipse Plus C18 column (Agilent Technologies). The HPLC system was first optimised as previously described and further adjusted to suitable settings. […] The flow rate of the mobile phase was maintained at 1 mL/min with an injection volume of 20 μL sample, where the column temperature was maintained at 35°C. The detector signal of the HPLC system for curcumin detection was adjusted to 425 nm. A 6-point calibration curve was prepared by serial dilution of 1 mg/mL curcumin stock solution in methanol. Curcumin concentrations (ng/mL) in the plasma were calculated based on the calibration curve. Time to reach maximum plasma concentration (Tmax) and maximum plasma concentration (Cmax) values were obtained directly from the measured data. The area under the curve from 0 to t (AUC0-t) was calculated using the linear-log trapezoidal method.
# [2] = system: CrFK cells; assay: Cytotoxicity assay (MTT); type: cell-based, feline; conditions: CrFK cells; MTT; tested 1 to 250 μg/mL
# Description: (§1) CrFK cells at a density of 2 × 10^4 were incubated in 96-well culture plates for 24 h at 37°C. Then, the cells were washed with PBS. […] A colorimetric MTT assay was performed. Briefly, 20 μL 5 mg/mL MTT solution was added to each well and incubated for 2 h at 37°C. Then, 170 μL solution was removed from each well; subsequently, 100 μL DMSO was added to dissolve the formazan crystals. The plate was then incubated for 1 h before optical density (OD) measurement at 570 nm using a plate reader (BioTek EL800, BioTek, Winooski, VT, USA).
# (§2) The relative cell viability (%) of CrFK cells after treatment was calculated using the formula (OD570 (treated cells)/OD570 (control cells)) × 100. The median cytotoxic concentration (CC50) is the concentration that reduces the absorbance of treated cells to 50% with respect to the cell controls. The CC50 of the compounds was calculated by regression analysis in SPSS software version 22.0 (IBM, Chicago, IL, USA).
# [3] = Cytotoxicity assay (MTT); type: cell-based, feline; conditions: cat
# Description: as §1, §2
# [4] = plasma, oral 250 mg/kg, single dosing (s.i.d.)
smiles,measurement,setting,value
COc1cc(/C=C/C(=O)CC(=O)/C=C/c2ccc(O)c(OC)c2)ccc1O [Curcumin],Curcumin content in plasma,[1]; 50 mg/kg,< 25 ng/mL
same,Curcumin content in plasma,[1]; 100 mg/kg,< 25 ng/mL
same,Tmax,"[1]; cat, plasma, oral 250 mg/kg, b.i.d. study, as stated in the text (similar to s.i.d. profile)",2 to 4 h
same,AUC0-12 as share of AUC0-∞,[1]; oral 250 mg/kg,more than 80%
same,AUC(0-inf),[1]; [4],1370 ± 112 ng·h/mL
same,Tmax,[1]; [4],3 h
same,Cmax,[1]; [4],220 ± 18.6 ng/mL
same,AUC(0-t),"[1]; plasma, oral 250 mg/kg, single dosing (s.i.d.), read-out: AUC0-12",1140 ± 137 ng·h/mL
same,Cmax,"[1]; plasma, oral 250 mg/kg, two dosing (b.i.d.) 12 h apart",241 ± 27.1 ng/mL
same,Tmax,"[1]; plasma, oral 250 mg/kg, two dosing (b.i.d.), after the second dose",4 h
same,AUC(0-t),"[1]; plasma, oral 250 mg/kg, two dosing (b.i.d.), read-out: AUC0-12",1510 ± 72.4 ng·h/mL
same,AUC(0-t),"[1]; plasma, oral 250 mg/kg, two dosing (b.i.d.), read-out: AUC0-24",3100 ± 176 ng·h/mL
same,Concentration tolerated by the cells without cytotoxic effect,[2],15 µg/mL
same,CC50 at 24 h,[3],69.9 µM
same,CC50 at 48 h,[3],59.1 µM
same,CC50 at 72 h,[3],35.5 µM
